Assay results from article PMC5748281 (ACS Omega, 2017).
pIC50: −log10 of the molar value. Entries after “also recorded” stand apart in the source; their conditions may differ. Like-named read-outs stand apart in the source and are kept apart here.

Key:
yeast cells = conditions: cited from earlier work
S. cerevisiae [1] = assay: Growth inhibition assay, 96-well microplate format; format: cell-based, Saccharomyces cerevisiae; conditions: for IC50: read-out: log 1/IC50 Obsd (converted); for IC80: read-out: log 1/IC80 Obsd (converted)
Water solubility = format: physicochemical; conditions: water / assay medium
S. cerevisiae [2] = assay: DEL; conditions: IC80 concentration; for Induction of deletion, fold increase over untreated control, Obsd: 17 h, DEL(URA3) strain, average of three samples; for deletion formation / genotoxicity in words: DEL assay
[3] = tested on: DNA repair null mutant yeast strains; format: cell-based, Saccharomyces cerevisiae
yeast = conditions: aniline metabolites in yeast; cited from earlier work

Row | Structure (SMILES) | log 1/ICFR50 Obsd (yeast cells) | IC50 (S. cerevisiae [1]; Saccharomyces cerevisiae, 17 h) | IC80 (S. cerevisiae [1]; Saccharomyces cerevisiae, 17 h) | also measured
1 | Oc1cccc(Cl)c1Cl [2,3-Cl2] | 2.68 |  |  | 
2 | CCCCCCCCCCCCc1ccc(O)cc1 [4-dodecylphenol] |  |  |  | inhibition at 350 µM (S. cerevisiae [1]; Saccharomyces cerevisiae, read-out: growth inhibition): 40%; solubility in words (Water solubility): poor water solubility
3 | COc1ccc(O)c(C(C)(C)C)c1 [2-C(CH3)3,4-OCH3, 2-tert-butyl-4-methoxy-phenol] |  | 0.288 mM | 0.407 mM | Induction of deletion, fold increase over untreated control, Obsd (S. cerevisiae [2]): 2.57 fold; Induction of deletion, fold increase over untreated control, Obsd (S. cerevisiae [2]; listed as BHA-2): greater than 2 fold
4 | Oc1c(F)c(F)c(F)c(F)c1F [2,3,4,5,6-F5] | 2.05 |  |  | 
5 | CC(C)(C)c1cc(O)cc(C(C)(C)C)c1 [3,5-(C(CH3)3)2] | 3.96 |  |  | 
6 | COc1ccc(O)cc1 [4-OCH3, 4-methoxyphenol] |  | 10.5 mM | 12.3 mM | Induction of deletion, fold increase over untreated control, Obsd (S. cerevisiae [2]): 2.01 fold
7 | Oc1ccccc1Br [2-Br] | 2.08 |  |  | 
8 | N#Cc1ccc(O)cc1 [4-CN, 4-cyanophenol] |  | 3.02 mM | 5.5 mM | Induction of deletion, fold increase over untreated control, Obsd (S. cerevisiae [2]): 1.25 fold
9 | CCCCCc1ccc(O)cc1 [4-(CH2)4CH3, 4-pentylphenol] |  | 0.0891 mM | 0.11 mM | 
10 | CCCCOc1ccc(O)cc1 [4-OC4H9, 4-butoxyphenol] |  | 0.525 mM | 0.692 mM | 
11 | Oc1cccc(C(F)(F)F)c1 [3-CF3] | 2.31 |  |  | 
12 | Oc1ccc(Br)cc1 [4-Br, 4-bromophenol] | 2.4 | 0.832 mM | 1.1 mM | 
13 | Oc1c(Cl)cccc1Cl [2,6-Cl2] | 2.52 |  |  | 
14 | Oc1ccccc1O [2-OH (catechol), catechol] |  | 2.24 mM | 3.39 mM | Induction of deletion, fold increase over untreated control, Obsd (S. cerevisiae [2]): 2.26 fold
15 | Cc1cc(O)cc(C)c1Cl [4-Cl, 3,5-(CH3)2] | 2.96 |  |  | 
16 | Cc1cc(C(C)(C)C)c(O)c(C(C)(C)C)c1 [BHT, 2,6-di-tert-butyl-4-methyl-phenol] |  | 0.132 mM | 0.251 mM | growth phenotype of DNA repair null mutant strains [3]: unresponsive; also recorded: negligible; also recorded: did not cause clear growth defects
17 | COc1cc(O)cc(OC)c1 [3,5-(OCH3)2] | 1.54 |  |  | 
18 | O=C(O)c1ccc(O)cc1 [4-COOH] | 1.75 |  |  | 
19 | Oc1ccc(F)cc1 [4-F, 4-fluorophenol] |  | 4.79 mM | 6.17 mM | Induction of deletion, fold increase over untreated control, Obsd (S. cerevisiae [2]): 2.03 fold
20 | Oc1cc(Cl)c(Cl)cc1Cl [2,4,5-Cl3] | 3.26 |  |  | 

Row | Structure (SMILES) | log 1/ICFR50 Obsd (yeast cells) | IC50 (S. cerevisiae [1]; Saccharomyces cerevisiae, 17 h) | IC80 (S. cerevisiae [1]; Saccharomyces cerevisiae, 17 h) | also measured
21 | CC(C)(c1ccc(O)cc1)c1ccc(O)cc1 [bisphenol-A, bisphenol A] |  | 0.676 mM | 0.813 mM | 
22 | Oc1cc(Cl)c(Cl)c(Cl)c1 [3,4,5-Cl3] | 3.3 |  |  | 
23 | Oc1cc(Cl)c(Cl)c(Cl)c1Cl [2,3,4,5-Cl4] | 3.92 |  |  | 
24 | Oc1ccc(Cl)cc1Cl [2,4-Cl2] | 2.77 |  |  | 
25 | Oc1c(Cl)cc(Cl)cc1Cl [2,4,6-Cl3] | 3.28 |  |  | 
26 | CCOc1ccc(O)cc1 [4-OC2H5, 4-ethoxyphenol] |  | 6.76 mM | 7.94 mM | 
27 | COc1ccc(O)c(C(C)(C)C)c1 [BHA, butylated hydroxy anisole] |  |  |  | growth phenotype of DNA repair null mutant strains [3]: growth defects in most of the DNA repair null mutant strains tested; also recorded: some level of growth defect; growth phenotype of Δrad4 strain [3]: more resistant; growth phenotype of Δrad14 strain [3]: increased sensitivity; log 1/IC80 Obsd (S. cerevisiae [1]; 80% inhibition of yeast growth, 17 h, 30 °C, OD 655 nm): 3.37; log 1/IC50 Obsd (S. cerevisiae [1]; inhibition of yeast growth, 17 h, 30 °C, OD 655 nm): 3.72; deletion formation / genotoxicity in words (S. cerevisiae [2]): significant increase in deletion events
28 | Oc1c(Cl)c(Cl)c(Cl)c(Cl)c1Cl [2,3,4,5,6-Cl5] | 3.96 |  |  | 
29 | Cc1ccc(O)c(N)c1 [2-NH2,4-CH3] | 1.07 |  |  | 
30 | CCCOc1ccc(O)cc1 [4-OC3H7, 4-propoxyphenol] |  | 1.82 mM | 2.24 mM | 
31 | Oc1ccccc1 [4-H, phenol] | 1.17 | 11 mM | 14.1 mM | Induction of deletion, fold increase over untreated control, Obsd (S. cerevisiae [2]): 2.27 fold
32 | COc1ccc(O)cc1C(C)(C)C [3-C(CH3)3,4-OCH3, 3-tert-butyl-4-methoxy-phenol] |  | 0.38 mM | 0.49 mM | deletion formation / genotoxicity in words (S. cerevisiae [2]; listed as BHA-3): do not increase the deletion formation; Induction of deletion, fold increase over untreated control, Obsd (S. cerevisiae [2]): 1.17 fold
33 | CCCCCCCCCc1ccc(O)cc1 [4-(CH2)8CH3, 4-nonylphenol] |  | 0.02 mM | 0.0398 mM | pIC50 (S. cerevisiae [1]; Saccharomyces cerevisiae, 17 h): 4.70; Induction of deletion, fold increase over untreated control, Obsd (S. cerevisiae [2]): 2.58 fold
34 | Oc1ccc(Cl)cc1 [4-Cl, 4-chlorophenol] | 2.07 | 1.35 mM | 1.66 mM | Induction of deletion, fold increase over untreated control, Obsd (S. cerevisiae [2]): 1.85 fold
35 | Oc1ccc(I)cc1 [4-I] | 2.4 |  |  | 
36 | CC(=O)Nc1ccc(O)cc1 [4-acetamidophenol] |  |  |  | increase in deletion frequencies in words (yeast): did not show a significant increase
37 | O=[N+]([O-])c1ccc(O)cc1 [4-NO2, 4-nitrophenol] | 2.85 | 0.603 mM | 0.813 mM | 
38 | Oc1ccc(O)cc1 [4-OH, hydroquinone] |  | 27.5 mM | 40.7 mM | Induction of deletion, fold increase over untreated control, Obsd (S. cerevisiae [2]): 2.25 fold
39 | Oc1c(I)cc(I)cc1I [2,4,6-(I)3] | 4.3 |  |  | 
40 | Cc1ccc(O)c([N+](=O)[O-])c1 [4-CH3,2-NO2] | 2.1 |  |  | 
